Experimental data reported in article PMC6409085, “Three odorant-binding proteins are involved in the behavioral response of Sogatella furcifera to rice plant volatiles” (PeerJ, 2019).
“And” between values parts separate entries of the source, which are not always exact repeats. Equal entries are not always repeated.

Experiments:
S. furcifera adults = experiment: Y-tube olfactometer behavioral trials; assay type: in vivo, Sogatella furcifera; settings: odorant 50 µL/L vs hexane; adults
Procedure: To test the effect of the rice odorants on the behavior of S. furcifera adults, a glass Y-tube olfactometer (inner diameter 2.0 cm, stem 13 cm, arms 10 cm, angle of arms 60°) according to the previously described ([Wang et al., 2014b]) was employed. An airtight cubic box (70 by 45 by 30 cm) was used to position Y-tube, and the Y-tube was lighted by a 30-W filament lamp 25 cm above it. Air that filtered through activated charcoal and humidified with doubly distilled water was pumped in both arms at a flow rate of 300 mL/min. Two filter paper strips (10 by 1 cm) containing 100 µL odorant source (50 µL/L) and 100 µL control hexane were placed in two holding chambers in the front of the olfactometer, respectively. A S. furcifera adult (2 days after emergence, starved for 0.5 h) was randomly chosen and placed in the stem of the Y-tube. Each insect was given 10 min to choose between the two arms of the Y-tube, the choice was noted if the planthopper reached one-half of the arms’ lengths and stayed in the arm for more than 1 min. Besides, S. furcifera was considered as having no orientation preference. Forty-five individuals were used for each compound, each insect used only once. And the dual-choice experiment was done in an environmentally controlled room (25 ± 1 °C and 50% RH). A Chi-squared test was used to analyze the behavioral assay data by using SPSS19.0 (SPSS Inc., Chicago, IL, USA) software.

SfurOBP2 = SfurOBP2 (Sogatella furcifera, UniProt V5T759); experiment: biochemical; assay type: binding
SfurOBP2, sequence (V5T759 entry or part of it): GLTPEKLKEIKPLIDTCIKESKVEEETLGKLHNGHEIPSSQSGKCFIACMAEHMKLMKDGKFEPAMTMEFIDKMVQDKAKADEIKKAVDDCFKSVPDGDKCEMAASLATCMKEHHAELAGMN
How it was run: (§1)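 K1-NPN came from titrating 2.0 µM protein (50 mM Tris-HCl, pH 7.4) with 1-NPN. Odorants at 2-20 µM then competed against 2.0 µM protein plus 2.0 µM 1-NPN for 2 min, with excitation at 337 nm and emission recorded over 390-490 nm. IC50 values were converted to Ki via Ki = IC50/(1 + [1-NPN]/K1-NPN).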

SfurOBP3 = SfurOBP3 (Sogatella furcifera, UniProt V5T818); experiment: biochemical; assay type: binding; settings: for Fluorescence competitive binding assay, fluorescence intensity: OBP3, three replicate columns
SfurOBP3, sequence (V5T818 entry or part of it): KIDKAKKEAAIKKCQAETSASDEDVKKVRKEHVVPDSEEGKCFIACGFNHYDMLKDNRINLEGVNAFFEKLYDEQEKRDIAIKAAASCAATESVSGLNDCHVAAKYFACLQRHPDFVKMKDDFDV
How it was run: as §1

SfurOBP11 = SfurOBP11 (Sogatella furcifera, UniProt V5T6E3); experiment: biochemical; assay type: binding
SfurOBP11, sequence (V5T6E3 entry or part of it): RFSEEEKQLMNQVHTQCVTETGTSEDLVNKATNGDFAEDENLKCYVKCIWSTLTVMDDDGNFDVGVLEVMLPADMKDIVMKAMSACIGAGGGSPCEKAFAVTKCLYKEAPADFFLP
How it was run: as §1

SfurOBP1 = SfurOBP1 (Sogatella furcifera, UniProt V5T8N5); experiment: biochemical; assay type: binding; settings: for Fluorescence competitive binding assay, fluorescence intensity: OBP1, three replicate columns
SfurOBP1, sequence (V5T8N5 entry or part of it): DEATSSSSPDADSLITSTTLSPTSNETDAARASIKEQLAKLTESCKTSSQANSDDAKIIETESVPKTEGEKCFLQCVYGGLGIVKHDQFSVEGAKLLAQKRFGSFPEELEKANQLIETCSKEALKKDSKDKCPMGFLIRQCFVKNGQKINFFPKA
How it was run: as §1

IC50 (SfurOBP2; SfurOBP2, protein and 1-NPN both 2.0 µM, competitor 2-20 µM, read-out: IC50): 18.2 µM
Fluorescence competitive binding assay, OBP2 (raw fluorescence reading) (SfurOBP2; ligand concentration 2 (unit not given), replicate column 1 of 3): 16746
Fluorescence competitive binding assay, OBP2 (raw fluorescence reading) (SfurOBP2; ligand concentration 2 (unit not given), replicate column 2 of 3): 14676
Fluorescence competitive binding assay, OBP2 (raw fluorescence reading) (SfurOBP2; ligand concentration 2 (unit not given), replicate column 3 of 3): 15441
Fluorescence competitive binding assay, OBP2 (raw fluorescence reading) (SfurOBP2; ligand concentration 4 (unit not given), replicate column 1 of 3): 14875
Fluorescence competitive binding assay, OBP2 (raw fluorescence reading) (SfurOBP2; ligand concentration 4 (unit not given), replicate column 2 of 3): 15827
Fluorescence competitive binding assay, OBP2 (raw fluorescence reading) (SfurOBP2; ligand concentration 4 (unit not given), replicate column 3 of 3): 16107
Fluorescence competitive binding assay, OBP2 (raw fluorescence reading) (SfurOBP2; ligand concentration 6 (unit not given), replicate column 1 of 3): 14243
Fluorescence competitive binding assay, OBP2 (raw fluorescence reading) (SfurOBP2; ligand concentration 6 (unit not given), replicate column 2 of 3): 15150
Fluorescence competitive binding assay, OBP2 (raw fluorescence reading) (SfurOBP2; ligand concentration 6 (unit not given), replicate column 3 of 3): 15095
Fluorescence competitive binding assay, OBP2 (raw fluorescence reading) (SfurOBP2; ligand concentration 8 (unit not given), replicate column 1 of 3): 12994
Fluorescence competitive binding assay, OBP2 (raw fluorescence reading) (SfurOBP2; ligand concentration 8 (unit not given), replicate column 2 of 3): 13858
Fluorescence competitive binding assay, OBP2 (raw fluorescence reading) (SfurOBP2; ligand concentration 8 (unit not given), replicate column 3 of 3): 14632
Fluorescence competitive binding assay, OBP2 (raw fluorescence reading) (SfurOBP2; ligand concentration 10 (unit not given), replicate column 1 of 3): 12524
Fluorescence competitive binding assay, OBP2 (raw fluorescence reading) (SfurOBP2; ligand concentration 10 (unit not given), replicate column 2 of 3): 13543
Fluorescence competitive binding assay, OBP2 (raw fluorescence reading) (SfurOBP2; ligand concentration 10 (unit not given), replicate column 3 of 3): 13950
Fluorescence competitive binding assay, OBP2 (raw fluorescence reading) (SfurOBP2; ligand concentration 12 (unit not given), replicate column 1 of 3): 11798
Fluorescence competitive binding assay, OBP2 (raw fluorescence reading) (SfurOBP2; ligand concentration 12 (unit not given), replicate column 2 of 3): 13085
Fluorescence competitive binding assay, OBP2 (raw fluorescence reading) (SfurOBP2; ligand concentration 12 (unit not given), replicate column 3 of 3): 12945
Fluorescence competitive binding assay, OBP2 (raw fluorescence reading) (SfurOBP2; ligand concentration 14 (unit not given), replicate column 1 of 3): 12191
Fluorescence competitive binding assay, OBP2 (raw fluorescence reading) (SfurOBP2; ligand concentration 14 (unit not given), replicate column 2 of 3): 12517
Fluorescence competitive binding assay, OBP2 (raw fluorescence reading) (SfurOBP2; ligand concentration 14 (unit not given), replicate column 3 of 3): 12178
Fluorescence competitive binding assay, OBP2 (raw fluorescence reading) (SfurOBP2; ligand concentration 16 (unit not given), replicate column 1 of 3): 11027
Fluorescence competitive binding assay, OBP2 (raw fluorescence reading) (SfurOBP2; ligand concentration 16 (unit not given), replicate column 2 of 3): 11256
Fluorescence competitive binding assay, OBP2 (raw fluorescence reading) (SfurOBP2; ligand concentration 16 (unit not given), replicate column 3 of 3): 11449
Fluorescence competitive binding assay, OBP2 (raw fluorescence reading) (SfurOBP2; ligand concentration 18 (unit not given), replicate column 1 of 3): 11299
Fluorescence competitive binding assay, OBP2 (raw fluorescence reading) (SfurOBP2; ligand concentration 18 (unit not given), replicate column 2 of 3): 11344
Fluorescence competitive binding assay, OBP2 (raw fluorescence reading) (SfurOBP2; ligand concentration 18 (unit not given), replicate column 3 of 3): 11251
Fluorescence competitive binding assay, OBP2 (raw fluorescence reading) (SfurOBP2; ligand concentration 20 (unit not given), replicate column 1 of 3): 11544
Fluorescence competitive binding assay, OBP2 (raw fluorescence reading) (SfurOBP2; ligand concentration 20 (unit not given), replicate column 2 of 3): 11076
Fluorescence competitive binding assay, OBP2 (raw fluorescence reading) (SfurOBP2; ligand concentration 20 (unit not given), replicate column 3 of 3): 11172
Fluorescence competitive binding assay, fluorescence intensity (SfurOBP3; ligand concentration 2): 55523 and 54254 and 55950
Fluorescence competitive binding assay, fluorescence intensity (SfurOBP3; ligand concentration 4): 52204 and 49599 and 49733
Fluorescence competitive binding assay, fluorescence intensity (SfurOBP3; ligand concentration 6): 48530 and 49919 and 47140
Fluorescence competitive binding assay, fluorescence intensity (SfurOBP3; ligand concentration 8): 48179 and 44521 and 46350
Fluorescence competitive binding assay, fluorescence intensity (SfurOBP3; ligand concentration 10): 42323 and 44632 and 41414
Fluorescence competitive binding assay, fluorescence intensity (SfurOBP3; ligand concentration 12): 39705 and 38987 and 37616
Fluorescence competitive binding assay, fluorescence intensity (SfurOBP3; ligand concentration 14): 34880 and 34317 and 34633
Fluorescence competitive binding assay, fluorescence intensity (SfurOBP3; ligand concentration 16): 32423 and 30011 and 29519
Fluorescence competitive binding assay, fluorescence intensity (SfurOBP3; ligand concentration 18): 30169 and 30976 and 30764
Fluorescence competitive binding assay, fluorescence intensity (SfurOBP3; ligand concentration 20): 29092 and 31304 and 30368
binding affinity to SfurOBP3 (in words) (SfurOBP3; SfurOBP3): high binding affinities
IC50 (SfurOBP3; SfurOBP3, protein and 1-NPN both 2.0 µM, competitor 2-20 µM, read-out: IC50): 19 µM
IC50 (SfurOBP11; SfurOBP11, protein and 1-NPN both 2.0 µM, competitor 2-20 µM, read-out: IC50): > 20 µM
Fluorescence intensity, fluorescence competitive binding assay, OBP11 (SfurOBP11; ligand concentration 2, replicate 1): 32108
Fluorescence intensity, fluorescence competitive binding assay, OBP11 (SfurOBP11; ligand concentration 2, replicate 2): 31162
Fluorescence intensity, fluorescence competitive binding assay, OBP11 (SfurOBP11; ligand concentration 2, replicate 3): 30215
Fluorescence intensity, fluorescence competitive binding assay, OBP11 (SfurOBP11; ligand concentration 4, replicate 1): 28342
Fluorescence intensity, fluorescence competitive binding assay, OBP11 (SfurOBP11; ligand concentration 4, replicate 2): 28762
Fluorescence intensity, fluorescence competitive binding assay, OBP11 (SfurOBP11; ligand concentration 4, replicate 3): 29181
Fluorescence intensity, fluorescence competitive binding assay, OBP11 (SfurOBP11; ligand concentration 6, replicate 1): 25372
Fluorescence intensity, fluorescence competitive binding assay, OBP11 (SfurOBP11; ligand concentration 6, replicate 2): 24386
Fluorescence intensity, fluorescence competitive binding assay, OBP11 (SfurOBP11; ligand concentration 6, replicate 3): 25974
Fluorescence intensity, fluorescence competitive binding assay, OBP11 (SfurOBP11; ligand concentration 8, replicate 1): 24916
Fluorescence intensity, fluorescence competitive binding assay, OBP11 (SfurOBP11; ligand concentration 8, replicate 2): 25493
Fluorescence intensity, fluorescence competitive binding assay, OBP11 (SfurOBP11; ligand concentration 8, replicate 3): 26070
Fluorescence intensity, fluorescence competitive binding assay, OBP11 (SfurOBP11; ligand concentration 10, replicate 1): 22613
Fluorescence intensity, fluorescence competitive binding assay, OBP11 (SfurOBP11; ligand concentration 10, replicate 2): 22095
Fluorescence intensity, fluorescence competitive binding assay, OBP11 (SfurOBP11; ligand concentration 10, replicate 3): 23428
Fluorescence intensity, fluorescence competitive binding assay, OBP11 (SfurOBP11; ligand concentration 12, replicate 1): 21169
Fluorescence intensity, fluorescence competitive binding assay, OBP11 (SfurOBP11; ligand concentration 12, replicate 2): 22102
Fluorescence intensity, fluorescence competitive binding assay, OBP11 (SfurOBP11; ligand concentration 12, replicate 3): 22210
Fluorescence intensity, fluorescence competitive binding assay, OBP11 (SfurOBP11; ligand concentration 14, replicate 1): 20351
Fluorescence intensity, fluorescence competitive binding assay, OBP11 (SfurOBP11; ligand concentration 14, replicate 2): 23661
Fluorescence intensity, fluorescence competitive binding assay, OBP11 (SfurOBP11; ligand concentration 14, replicate 3): 21671
Fluorescence intensity, fluorescence competitive binding assay, OBP11 (SfurOBP11; ligand concentration 16, replicate 1): 17887
Fluorescence intensity, fluorescence competitive binding assay, OBP11 (SfurOBP11; ligand concentration 16, replicate 2): 19544
Fluorescence intensity, fluorescence competitive binding assay, OBP11 (SfurOBP11; ligand concentration 16, replicate 3): 17889
Fluorescence intensity, fluorescence competitive binding assay, OBP11 (SfurOBP11; ligand concentration 18, replicate 1): 23369
Fluorescence intensity, fluorescence competitive binding assay, OBP11 (SfurOBP11; ligand concentration 18, replicate 2): 23675
Fluorescence intensity, fluorescence competitive binding assay, OBP11 (SfurOBP11; ligand concentration 18, replicate 3): 24479
Fluorescence intensity, fluorescence competitive binding assay, OBP11 (SfurOBP11; ligand concentration 20, replicate 1): 22182
Fluorescence intensity, fluorescence competitive binding assay, OBP11 (SfurOBP11; ligand concentration 20, replicate 2): 24009
Fluorescence intensity, fluorescence competitive binding assay, OBP11 (SfurOBP11; ligand concentration 20, replicate 3): 23801
Fluorescence competitive binding assay, fluorescence intensity (SfurOBP1; ligand concentration 2 (μM)): 6708 and 6744 and 6934
Fluorescence competitive binding assay, fluorescence intensity (SfurOBP1; ligand concentration 4 (μM)): 6359 and 8427 and 6473
Fluorescence competitive binding assay, fluorescence intensity (SfurOBP1; ligand concentration 6 (μM)): 6867 and 6865 and 7375
Fluorescence competitive binding assay, fluorescence intensity (SfurOBP1; ligand concentration 8 (μM)): 8143 and 7305 and 8959
Fluorescence competitive binding assay, fluorescence intensity (SfurOBP1; ligand concentration 10 (μM)): 7362 and 11085 and 8523
Fluorescence competitive binding assay, fluorescence intensity (SfurOBP1; ligand concentration 12 (μM)): 6544 and 7094 and 6753
Fluorescence competitive binding assay, fluorescence intensity (SfurOBP1; ligand concentration 14 (μM)): 7135 and 7404 and 8089
Fluorescence competitive binding assay, fluorescence intensity (SfurOBP1; ligand concentration 16 (μM)): 5378 and 6818 and 6356
Fluorescence competitive binding assay, fluorescence intensity (SfurOBP1; ligand concentration 18 (μM)): 6689 and 7935 and 7391
Fluorescence competitive binding assay, fluorescence intensity (SfurOBP1; ligand concentration 20 (μM)): 6918 and 6511 and 6565
IC50 (SfurOBP1; SfurOBP1, protein and 1-NPN both 2.0 µM, competitor 2-20 µM, read-out: IC50): > 20 µM
SMILES: C=CC(C)(O)CCC=C(C)CCC=C(C)C (mixture of isomers) [nerolidol]
number of insects choosing hexane arm (S. furcifera adults): 13
number of insects choosing volatilies arm (S. furcifera adults): 15
number of insects failed (no choice) (S. furcifera adults): 12
